# Measured values published in PubChem BioAssay (NCI).
#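 Values below derive from 48-hour exposures of cells grown in 96-well plates, with endpoints linearly interpolated between the two concentrations bracketing the appropriate inhibition level. GI50 marks 50% less growth. TGI denotes the concentration required for complete inhibition of growth.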
# How the values were obtained:
# Assay in all cases: growth of human tumour cells (NCI), 48 h
# [1] = tested on: COLO 205 colon
# [2] = tested on: ACHN renal
# [3] = tested on: NCI-H226 lung
# [4] = tested on: SR leukemia
# [5] = tested on: T-47D breast
# [6] = tested on: RXF 393 renal
# [7] = tested on: OVCAR-4 ovarian
# [8] = tested on: SF-268 CNS
# [9] = tested on: SW-620 colon
# [10] = tested on: HCC-2998 colon
# [11] = tested on: CCRF-CEM leukemia
# [12] = tested on: TK-10 renal
# [13] = tested on: HL-60(TB) leukemia
# [14] = tested on: EKVX NSCLC
# [15] = tested on: 786-0 renal
# [16] = tested on: M14 melanoma
# [17] = tested on: A549 NSCLC
# [18] = tested on: MCF7 breast
# [19] = tested on: HS 578T breast
# [20] = tested on: HCT-15 colon
# [21] = tested on: HOP-62 NSCLC
# [22] = tested on: SK-MEL-28 melanoma
# [23] = tested on: MDA-N
# [24] = tested on: A498 renal
# [25] = tested on: OVCAR-5 ovarian
# [26] = tested on: U251 CNS
# [27] = tested on: BT-549 breast
# [28] = tested on: MDA-MB-435
# [29] = tested on: NCI-H23 lung
# [30] = tested on: NCI-H522 lung
# [31] = tested on: KM12 colon
# [32] = tested on: LOX IMVI melanoma
# [33] = tested on: SF-295 CNS
# [34] = tested on: SNB-19 CNS
# [35] = tested on: MOLT-4 leukemia
# [36] = tested on: SK-MEL-5 melanoma
# [37] = tested on: UACC-62 melanoma
# [38] = tested on: SK-OV-3 ovarian
# [39] = tested on: SF-539 CNS
# [40] = tested on: RPMI-8226 leukemia
# [41] = tested on: NCI-H460 lung
# [42] = tested on: NCI/ADR-RES ovarian
# [43] = tested on: UACC-257 melanoma
# [44] = tested on: UO-31 renal
# [45] = tested on: SK-MEL-2 melanoma
# [46] = tested on: K-562 leukemia
# [47] = tested on: CAKI-1 renal
# [48] = tested on: DU-145 prostate
# [49] = tested on: SN12C renal
# [50] = tested on: HCT-116 colon
# [51] = tested on: OVCAR-3 ovarian
# [52] = tested on: HT29 colon
# [53] = tested on: IGROV1 ovarian
# [54] = tested on: PC-3 prostate
# [55] = tested on: HOP-92 NSCLC
# [56] = tested on: OVCAR-8 ovarian
# [57] = tested on: SNB-75 CNS
# [58] = tested on: MALME-3M melanoma
# [59] = tested on: MDA-MB-231 breast
compound,measurement,setting,value
COc1ccc(CNC(=O)[C@H](Cc2ccc(O)cn2)NC(C)=O)cc1,TGI,[1],> 100 µM
same,TGI,[2],> 100 µM
same,TGI,[3],> 100 µM
same,TGI,[4],> 100 µM
same,TGI,[5],> 100 µM
same,TGI,[6],> 100 µM
same,TGI,[7],> 100 µM
same,TGI,[8],> 100 µM
same,TGI,[9],> 100 µM
same,TGI,[10],> 100 µM
same,TGI,[11],> 100 µM
same,TGI,[12],> 100 µM
same,TGI,[13],> 100 µM
same,TGI,[14],> 100 µM
same,TGI,[15],> 100 µM
same,TGI,[16],> 100 µM
same,TGI,[17],> 100 µM
same,TGI,[18],> 100 µM
same,TGI,[19],> 100 µM
same,TGI,[20],> 100 µM
same,TGI,[21],> 100 µM
same,TGI,[22],> 100 µM
same,TGI,[23],> 100 µM
same,TGI,[24],> 100 µM
same,TGI,[25],> 100 µM
same,TGI,[26],> 100 µM
same,TGI,[27],> 100 µM
same,TGI,[28],> 100 µM
same,TGI,[29],> 100 µM
same,TGI,[30],> 100 µM
same,TGI,[31],> 100 µM
same,TGI,[32],> 100 µM
same,TGI,[33],> 100 µM
same,TGI,[34],> 100 µM
same,TGI,[35],> 100 µM
same,TGI,[36],> 100 µM
same,TGI,[37],> 100 µM
same,TGI,[38],> 100 µM
same,TGI,[39],> 100 µM
same,TGI,[40],> 100 µM
same,TGI,[41],> 100 µM
same,TGI,[42],> 100 µM
same,TGI,[43],> 100 µM
same,TGI,[44],> 100 µM
same,TGI,[45],> 100 µM
same,TGI,[46],> 100 µM
same,TGI,[47],> 100 µM
same,TGI,[48],> 100 µM
same,TGI,[49],> 100 µM
same,TGI,[50],> 100 µM
same,TGI,[51],> 100 µM
same,TGI,[52],> 100 µM
same,TGI,[53],> 100 µM
same,TGI,[54],> 100 µM
CCCOC1OC(CS(=O)(=O)O)C(O)C(O)C1O (centres undefined),TGI,[1],> 100 µM
same,TGI,[3],> 100 µM
same,TGI,[4],> 100 µM
same,TGI,[5],> 100 µM
same,TGI,[6],> 100 µM
same,TGI,[7],> 100 µM
same,TGI,[9],> 100 µM
same,TGI,[10],> 100 µM
same,TGI,[11],> 100 µM
same,TGI,[12],> 100 µM
same,TGI,[13],> 100 µM
same,TGI,[16],> 100 µM
same,TGI,[18],> 100 µM
same,TGI,[55],> 100 µM
same,TGI,[19],> 100 µM
same,TGI,[20],> 100 µM
same,TGI,[21],> 100 µM
same,TGI,[22],> 100 µM
same,TGI,[23],> 100 µM
same,TGI,[24],> 100 µM
same,TGI,[25],> 100 µM
same,TGI,[26],> 100 µM
same,TGI,[27],> 100 µM
same,TGI,[28],> 100 µM
same,TGI,[29],> 100 µM
same,TGI,[31],> 100 µM
same,TGI,[32],> 100 µM
same,TGI,[56],> 100 µM
same,TGI,[33],> 100 µM
same,TGI,[34],> 100 µM
same,TGI,[35],> 100 µM
same,TGI,[36],> 100 µM
same,TGI,[37],> 100 µM
same,TGI,[38],> 100 µM
same,TGI,[40],> 100 µM
same,TGI,[41],> 100 µM
same,TGI,[42],> 100 µM
same,TGI,[43],> 100 µM
same,TGI,[44],> 100 µM
same,TGI,[45],> 100 µM
same,TGI,[57],> 100 µM
same,TGI,[58],> 100 µM
same,TGI,[46],> 100 µM
same,TGI,[47],> 100 µM
same,TGI,[48],> 100 µM
same,TGI,[49],> 100 µM
same,TGI,[50],> 100 µM
same,TGI,[51],> 100 µM
same,TGI,[52],> 100 µM
same,TGI,[53],> 100 µM
same,TGI,[54],> 100 µM
COc1cc(/C=C\c2cc(/C=C\c3ccc(O)c(OC)c3)n(C(=O)CNc3ccc(Cl)cc3)n2)ccc1O,GI50,[1],4.87 µM
same,TGI,[1],18.3 µM
same,GI50,[2],0.628 µM
same,TGI,[2],14.9 µM
same,GI50,[3],4.39 µM
same,TGI,[3],21.6 µM
same,GI50,[4],0.341 µM
same,TGI,[4],7.14 µM
same,GI50,[5],2.79 µM
same,TGI,[5],16 µM
same,GI50,[6],2.1 µM
same,TGI,[6],4.67 µM
same,GI50,[7],2.88 µM
same,TGI,[7],> 100 µM
same,GI50,[8],2.49 µM
same,TGI,[8],14.9 µM
same,GI50,[9],4.75 µM
same,TGI,[9],23.2 µM
same,GI50,[10],6.01 µM
same,TGI,[10],18 µM
same,GI50,[11],1.49 µM
same,TGI,[11],5.45 µM
same,GI50,[12],5.52 µM
same,TGI,[12],18.8 µM
same,GI50,[13],2.07 µM
same,TGI,[13],6.68 µM
same,GI50,[14],3.48 µM
same,TGI,[14],14.5 µM
same,GI50,[15],3.03 µM
same,TGI,[15],12.8 µM
same,GI50,[16],2.89 µM
same,TGI,[16],15.5 µM
same,GI50,[17],3.94 µM
same,TGI,[17],16.5 µM
same,GI50,[59],4.02 µM
same,TGI,[59],45 µM
same,GI50,[18],2.34 µM
same,TGI,[18],11.9 µM
same,GI50,[55],5.65 µM
same,TGI,[55],24.2 µM
same,GI50,[19],4.36 µM
same,TGI,[19],> 100 µM
same,GI50,[20],2.54 µM
same,TGI,[20],12.2 µM
same,GI50,[21],4.14 µM
same,TGI,[21],16.7 µM
same,GI50,[22],2.3 µM
same,TGI,[22],11.6 µM
same,GI50,[24],7.64 µM
same,TGI,[24],20 µM
same,GI50,[25],2.78 µM
same,TGI,[25],25.4 µM
same,GI50,[26],2.94 µM
same,TGI,[26],11.8 µM
same,GI50,[27],3 µM
same,TGI,[27],47 µM
same,GI50,[28],2.52 µM
same,TGI,[28],23.4 µM
same,GI50,[29],3.35 µM
same,TGI,[29],15.8 µM
same,GI50,[30],1.51 µM
same,TGI,[30],5.06 µM
same,GI50,[31],2.64 µM
same,TGI,[31],13.1 µM
same,GI50,[32],2.17 µM
same,TGI,[32],6.95 µM
same,GI50,[56],3.63 µM
same,TGI,[56],13.9 µM
same,GI50,[33],6.07 µM
same,TGI,[33],20.1 µM
same,GI50,[34],3.18 µM
same,TGI,[34],14.1 µM
same,GI50,[35],2.05 µM
same,TGI,[35],15.6 µM
same,GI50,[36],3.24 µM
same,TGI,[36],11.3 µM
same,GI50,[37],2.73 µM
same,TGI,[37],9.2 µM
same,GI50,[38],3.65 µM
same,TGI,[38],13 µM
same,GI50,[40],1.88 µM
same,TGI,[40],6.36 µM
same,GI50,[41],3.17 µM
same,TGI,[41],12.5 µM
same,GI50,[42],3.75 µM
same,TGI,[42],41.8 µM
same,GI50,[43],5.17 µM
same,TGI,[43],17.7 µM
same,GI50,[44],1.21 µM
same,TGI,[44],8.42 µM
same,GI50,[45],3.97 µM
same,TGI,[45],18.8 µM
same,GI50,[57],2.84 µM
same,TGI,[57],13 µM
same,GI50,[58],1.6 µM
same,TGI,[58],12 µM
same,GI50,[46],2.59 µM
same,TGI,[46],12.3 µM
same,GI50,[47],3.36 µM
same,TGI,[47],43.6 µM
same,GI50,[48],3.25 µM
same,TGI,[48],12.3 µM
same,GI50,[49],3.18 µM
same,TGI,[49],20.6 µM
same,GI50,[50],2.9 µM
same,TGI,[50],13.5 µM
same,GI50,[51],2.46 µM
same,TGI,[51],8.11 µM
same,GI50,[52],3 µM
same,TGI,[52],9.27 µM
same,GI50,[53],2.84 µM
same,TGI,[53],14.3 µM
same,GI50,[54],3.38 µM
same,TGI,[54],47.9 µM
